From patent US20030104507A1, “Method for detection of ATP” (priority 2001, published 2003)

Columns and labels:
[1] = target: native firefly luciferase (Photinus pyralis, UniProt P08659); settings: cited from earlier work
[2] = target: T1, LucPpy (Photinus pyralis, UniProt P08659); assay: Stability of reagent composition with LucPpy and detergent (RT, pH 7.0); format: biochemical; settings: for Average Relative Light Units / Percent of Luminescence Remaining: LucPpy
T1 construct: purchased Promega E170A
Outline: (§1)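 Reagent with 50 μg/ml luciferase, luciferin, MgSO4, buffer and detergent at varying concentrations held at about 23° C; enzyme added just before first read. At timepoints, aliquots mixed 1:1 with media containing ATP and luminescence read immediately (0.5 s/well, triplicate); reaction half-lives and percent of original luminescence derived.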

[3] = test system: LucPpe2m146; assay: Stability of reagent composition with LucPpe2m146 and detergent (RT, pH 7.0); format: biochemical, Photuris pennsylvanica
Outline: as §1

Sequence of native firefly luciferase (P08659 whole entry): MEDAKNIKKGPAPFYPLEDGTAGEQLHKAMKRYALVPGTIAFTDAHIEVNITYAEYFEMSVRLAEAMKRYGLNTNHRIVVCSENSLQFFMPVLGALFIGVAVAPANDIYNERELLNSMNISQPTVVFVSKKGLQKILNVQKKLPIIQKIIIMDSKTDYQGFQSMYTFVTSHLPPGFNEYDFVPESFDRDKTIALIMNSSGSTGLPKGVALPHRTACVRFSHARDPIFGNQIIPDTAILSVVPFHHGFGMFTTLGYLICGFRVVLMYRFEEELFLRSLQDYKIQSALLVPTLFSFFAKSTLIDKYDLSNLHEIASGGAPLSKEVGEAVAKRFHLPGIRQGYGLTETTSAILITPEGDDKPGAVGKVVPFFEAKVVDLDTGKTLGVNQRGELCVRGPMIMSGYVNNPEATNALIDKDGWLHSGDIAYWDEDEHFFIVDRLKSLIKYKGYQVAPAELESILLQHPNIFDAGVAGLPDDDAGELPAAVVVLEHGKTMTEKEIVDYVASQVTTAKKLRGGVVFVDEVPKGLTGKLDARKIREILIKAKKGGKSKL

CCCCCCCCCCCC[N+](C)(C)C.[Br-] [DTAB, dodecyltrimethylammonium bromide]
effect on native firefly luciferase [1]: inactivated
Half-life of Luminescence Activity ([2]; Common firefly luciferase (P. pyralis), conc. 0.500): no activity
Average Relative Light Units ([2]; 0.02%, 0.75 min (head r32)): 4513.320 rlu
Percent of Luminescence Remaining ([2]; 0.02%, 0.75 min (times of Table I r32)): 100.00%
Average Relative Light Units ([2]; 0.02%, 38 min (head r32)): 3761.940 rlu
Percent of Luminescence Remaining ([2]; 0.02%, 38 min (times of Table I r32)): 99.53%
Average Relative Light Units ([2]; 0.02%, 70 min (head r32)): 3363.410 rlu
Percent of Luminescence Remaining ([2]; 0.02%, 70 min (times of Table I r32)): 74.52%
Average Relative Light Units ([2]; 0.02%, 94 min (head r32)): 3229.340 rlu
Percent of Luminescence Remaining ([2]; 0.02%, 94 min (times of Table I r32)): 71.55%
Average Relative Light Units ([2]; 0.02%, 122 min (head r32)): 3082.030 rlu
Percent of Luminescence Remaining ([2]; 0.02%, 122 min (times of Table I r32)): 68.2%
Average Relative Light Units ([2]; 0.1%, 0.75 min (head r18)): 0.307 rlu
Percent of Luminescence Remaining ([2]; 0.1%, 0.75 min (times of Table I r18)): 100.00%
Average Relative Light Units ([2]; 0.1%, 10 min (head r18)): 0.009 rlu
Percent of Luminescence Remaining ([2]; 0.1%, 10 min (times of Table I r18)): 2.93%
Average Relative Light Units ([2]; 0.1%, 36 min (head r18)): 0.005 rlu
Percent of Luminescence Remaining ([2]; 0.1%, 36 min (times of Table I r18)): 1.55%
Average Relative Light Units ([2]; 0.5%, 0.75 min (head r5)): 0.018 rlu
Percent of Luminescence Remaining ([2]; 0.5%, 0.75 min (times of Table I r5)): 100.00%
Average Relative Light Units ([3]; LucPpe2m146, 0.02%, 1.0 min (head r67)): 28730.17 rlu
Percent of Luminescence Remaining ([3]; LucPpe2m146, 0.02%, 1.0 min (times of Table I r67)): 100.00%
Average Relative Light Units ([3]; LucPpe2m146, 0.02%, 34 min (head r67)): 28596.30 rlu
Percent of Luminescence Remaining ([3]; LucPpe2m146, 0.02%, 34 min (times of Table I r67)): 99.53%
Average Relative Light Units ([3]; LucPpe2m146, 0.02%, 65 min (head r67)): 28651.97 rlu
Percent of Luminescence Remaining ([3]; LucPpe2m146, 0.02%, 65 min (times of Table I r67)): 99.73%
Average Relative Light Units ([3]; LucPpe2m146, 0.02%, 115 min (head r67)): 26062.30 rlu
Percent of Luminescence Remaining ([3]; LucPpe2m146, 0.02%, 115 min (times of Table I r67)): 90.71%
Average Relative Light Units ([3]; LucPpe2m146, 0.02%, 175 min (head r67)): 27941.73 rlu
Percent of Luminescence Remaining ([3]; LucPpe2m146, 0.02%, 175 min (times of Table I r67)): 97.26%
Average Relative Light Units ([3]; LucPpe2m146, 0.02%, 238 min (head r67)): 27677.9 rlu
Percent of Luminescence Remaining ([3]; LucPpe2m146, 0.02%, 238 min (times of Table I r67)): 96.34%
Average Relative Light Units ([3]; LucPpe2m146, 0.02%, 286 min (head r67)): 27808.3 rlu
Percent of Luminescence Remaining ([3]; LucPpe2m146, 0.02%, 286 min (times of Table I r67)): 96.79%
Average Relative Light Units ([3]; LucPpe2m146, 0.1%, 1.0 min (head r54)): 20132.47 rlu
Percent of Luminescence Remaining ([3]; LucPpe2m146, 0.1%, 1.0 min (times of Table I r54)): 100.00%
Average Relative Light Units ([3]; LucPpe2m146, 0.1%, 34 min (head r54)): 20574.63 rlu
Percent of Luminescence Remaining ([3]; LucPpe2m146, 0.1%, 34 min (times of Table I r54)): 102.20%
Average Relative Light Units ([3]; LucPpe2m146, 0.1%, 65 min (head r54)): 20800.80 rlu
Percent of Luminescence Remaining ([3]; LucPpe2m146, 0.1%, 65 min (times of Table I r54)): 103.32%
Average Relative Light Units ([3]; LucPpe2m146, 0.1%, 115 min (head r54)): 19908.30 rlu
Percent of Luminescence Remaining ([3]; LucPpe2m146, 0.1%, 115 min (times of Table I r54)): 98.89%
Average Relative Light Units ([3]; LucPpe2m146, 0.1%, 175 min (head r54)): 20760.93 rlu
Percent of Luminescence Remaining ([3]; LucPpe2m146, 0.1%, 175 min (times of Table I r54)): 103.12%
Average Relative Light Units ([3]; LucPpe2m146, 0.1%, 238 min (head r54)): 19758.4 rlu
Percent of Luminescence Remaining ([3]; LucPpe2m146, 0.1%, 238 min (times of Table I r54)): 98.14%
Average Relative Light Units ([3]; LucPpe2m146, 0.1%, 286 min (head r54)): 19659.10 rlu
Percent of Luminescence Remaining ([3]; LucPpe2m146, 0.1%, 286 min (times of Table I r54)): 97.65%
Average Relative Light Units ([3]; LucPpe2m146, 0.5%, 15 min (head r41)): 5.496 rlu
Percent of Luminescence Remaining ([3]; LucPpe2m146, 0.5%, 15 min (times of Table I r41)): 100.00%
Average Relative Light Units ([3]; LucPpe2m146, 0.5%, 72 min (head r41)): 3.141 rlu
Percent of Luminescence Remaining ([3]; LucPpe2m146, 0.5%, 72 min (times of Table I r41)): 57.16%
Average Relative Light Units ([3]; LucPpe2m146, 0.5%, 124 min (head r41)): 2.769 rlu
Percent of Luminescence Remaining ([3]; LucPpe2m146, 0.5%, 124 min (times of Table I r41)): 50.39%
Average Relative Light Units ([3]; LucPpe2m146, 0.5%, 190 min (head r41)): 2.563 rlu
Percent of Luminescence Remaining ([3]; LucPpe2m146, 0.5%, 190 min (times of Table I r41)): 46.64%
Average Relative Light Units ([3]; LucPpe2m146, 0.5%, 251 min (head r41)): 2.766 rlu
Percent of Luminescence Remaining ([3]; LucPpe2m146, 0.5%, 251 min (times of Table I r41)): 50.32%
